Assay results as given in article PMC9696974 (Pharmaceutics, 2022).

Assays:
[1] = tested on: ct-DNA; experiment: Thermal denaturation of ct-DNA (∆Tm); format: binding, calf; conditions: r = 0.1, pH 5.0, sodium cacodylate buffer, I = 50 mM
Procedure: (§1) Experiments were conducted in an aqueous buffer solution (pH = 7.0 or pH= 5.0, I = 0.05 M, sodium cacodylate buffer). For the UV-Vis spectra were used Varian Cary 100 Bio spectrometer, for fluorescence spectra we used the Varian Cary Eclipse fluorimeter and for CD spectra we used the JASCO J815 spectropolarimeter, all conducted at 25.0 °C using appropriate quartz cuvettes (path length: 1 cm).
(§2) Polynucleotides were purchased as noted: poly dAdT-poly dAdT, poly dGdC-poly dGdC, poly A-poly U (ds-RNA), (Sigma-Aldrich, Schnelldorf, Germany), calf thymus (ct)-DNA (Sigma-Aldrich, Schnelldorf, Germany) and dissolved in sodium cacodylate buffer, I = 0.05 M, pH = 7.0. The ct-DNA was sonicated and filtered through a 0.45 µm filter to obtain mostly short (ca. 100 base pairs) rod-like B-helical DNA fragments. The concentration of DNA or RNA was determined spectroscopically as the c(nucleobase) using producer-provided molar extinction coefficients.
Thermal denaturation of ds-DNA, ds-RNA and their complexes with studied compounds was performed by monitoring the absorption change at 260 nm as a function of temperature. Tm values are the midpoints of the transition curves determined from the maximum of the first derivative and checked graphically by the tangent method. The ∆Tm values were calculated by subtracting the Tm of the free nucleic acid from the Tm of the complex. Every ∆Tm value here reported was the average of at least two measurements. The error in ∆Tm is ± 0.5 °C.

[2] = tested on: ct-DNA; experiment: Fluorimetric titration with ct-DNA, Scatchard equation; format: binding, calf; parameters: key: The changes were too small to allow an accurate calculation of the binding constant; conditions: I = 0.05 M
Procedure: as §1, §2
Fortunately, strong emission from the compounds studied allowed fluorimetric titrations to be performed at much lower concentrations of the dyes (c = 5 × 10^−8 M), thus preventing precipitation of non-methylated 1 or 2, and allowing for the collection of numerous data points at excess of DNA/RNA binding sites over c(dye). […] Intriguingly, mixed sequence ct-DNA caused emission quenching of 1M at an excess of dye over ct-DNA (r > 0.1), and such quenching could be attributed to aggregation of 1M along DNA, while at an excess of ct-DNA over dye (r << 0.1), emission increased. The emission of 2M was indiscriminately quenched by all ds-DNA/RNA (Figure 2d).
(§3) Processing of fluorimetric titrations by means of the Scatchard equation [56, 57] yielded binding constants (Table 2). […] Affinities of 1 and 2 toward BSA were the same at both pH values, supporting the conclusion that neutral forms of 1 and 2 were bound.

[3] = molecular target: BSA (Bos taurus, UniProt P02769); experiment: Fluorimetric titration with BSA, Scatchard equation; format: binding, bovine; conditions: pH 7, sodium cacodylate buffer, I = 0.05 M; read-out: Binding constant logKs BSA (converted)
Procedure: as §1
As the pharmacokinetic properties of small molecules often depend on a binding affinity toward transport proteins (such as serum albumin), we performed fluorimetric titrations with BSA. The emission of both 1M and 2M (Supplementary Information, Figures S15 and S16), was strongly quenched, with compound 2M showing a lower affinity in comparison to ds-DNA/RNA, while the affinity of 1M was similar to that towards ds-DNA/RNA (Table 2).
as §3

[4] = pKa from pH dependence of UV/vis spectrum; format: physicochemical; conditions: water (0.001 M HCl in miliQ water, titrated with NaOH), UV/vis spectra vs pH in water, c = 2.0 × 10^−5 M
[5] = Solubility in water; format: physicochemical
[6] = tested on: A549 cells; experiment: MTT cell viability assay, A549, with or without UV light; format: cell-based, human; conditions: A549
Procedure: Cells. Commercially available from American Type Culture Collection (ATCC), human epithelial lung adenocarcinoma A549 (ATCC® CCL-185™) and human normal lung fibroblast WI-38 (ATCC® CCL-75™) were grown according to supplier’s conditions, namely in Dulbecco Modified Eagle’s Medium (DMEM, Sigma Aldrich, St. Louis, MO, USA) supplemented with 10% of fetal bovine serum (FBS, Sigma Aldrich, USA). Cells were incubated in the cell incubator (Thermo Fischer Scientific, Waltham, MA, USA) at 37 °C and 5% CO2 in a humidified atmosphere.
Cell viability assay. In order to obtain a 10 mM stock solution chemical compounds (2M, 1, and 1M) were sterilely diluted in an appropriate volume of dimethyl sulfoxide solution (DMSO, Gram-Mol, Zagreb, Croatia). Solutions were kept in the dark and stored at 4 °C. The cytotoxic effects of each compound were assayed on A549 and WI-38 cells. […] Briefly, cells were seeded in 96-well tissue culture plates and 24 h later treated with 2M, 1, or 1M in the concentration range of 10–0.1 μM. Cells treated with the same dilutions of DMSO represented the control, while cells treated only with DMEM (10% FBS) represented the negative control. After 72 h, the media was removed, MTT solution was added into each well, and the plate was incubated (37 °C, 5% CO2) for 3 h. The resulting MTT-formazan products were dissolved using DMSO, and their absorbance at 600 nm was measured using a microplate reader.
For determining the effect of UV exposure, cells were seeded on two plates and treated with working solutions of the respective compounds as previously described. Plates were incubated (37 °C, 5% CO2) for 90 min, allowing the compounds to enter the cells. Then, one plate was exposed to UV light (Luzchem reactor, 350 nm, 8 lamps, in total 8 W, dose 50.6 mWm^−2; ~18 cm lamp to cell-plate) for 5 min, 3 days in a row at the same time each day, while the other plate was left in the cell incubator in the dark and served as a control.

Sequence of BSA (P02769 25-607): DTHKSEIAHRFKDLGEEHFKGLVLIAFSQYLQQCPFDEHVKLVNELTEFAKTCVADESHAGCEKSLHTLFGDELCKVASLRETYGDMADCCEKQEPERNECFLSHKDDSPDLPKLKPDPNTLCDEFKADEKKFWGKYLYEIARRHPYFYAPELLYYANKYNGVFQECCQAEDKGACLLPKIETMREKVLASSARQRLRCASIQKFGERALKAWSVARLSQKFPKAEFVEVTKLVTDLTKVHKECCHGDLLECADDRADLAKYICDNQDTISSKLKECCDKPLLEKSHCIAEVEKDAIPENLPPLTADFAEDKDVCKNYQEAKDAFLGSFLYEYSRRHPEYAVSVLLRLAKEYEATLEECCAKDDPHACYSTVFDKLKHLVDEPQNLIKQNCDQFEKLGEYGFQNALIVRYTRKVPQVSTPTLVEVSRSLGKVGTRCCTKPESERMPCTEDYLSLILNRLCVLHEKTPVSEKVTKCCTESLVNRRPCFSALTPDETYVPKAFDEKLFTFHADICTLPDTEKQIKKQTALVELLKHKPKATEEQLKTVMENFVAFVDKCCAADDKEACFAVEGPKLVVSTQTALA

SMILES: c1cc(-c2cc3ccc4cc(-c5ccncc5)cc5ccc(c2)c3c45)ccn1 [compound 2]
- ∆Tm ct-DNA [1]: 1.5 °C
- Binding constant logKs ct-DNA ([2]; pH 5, sodium cacodylate buffer): 5.7
- Binding constant logKs ct-DNA ([2]; pH 7, sodium cacodylate buffer): b
- Kd [3]: 5.01 µM
- pKa [4]: < 4
- Solubility in water [5]: poorly soluble in water
- Cytotoxic effect (cell survival, Figure S25) [6]: no cytotoxic effect
